Active and inactive are the calls of the source. No cut-off for these calls is given here.
Key:
MGC-803 [1] = experiment: Antitumor activity against CMTPX- labeled human MGC-803 cells xenografted in zebrafish assessed as inhibition of tumor growth measured after 72 hrs by fluorescence microscopic analysis; type: functional, cell-based; conditions: dose 25-100 nM
MGC-803 [2] = experiment: Induction of apoptosis in human MGC-803 cells assessed as increase in Caspase-9 expression incubated for 24 hrs by Western blot analysis; type: functional, cell-based; conditions: dose 7.5-30 nM
HUVEC [3] = experiment: Antiinvasive activity in HUVEC cells assessed as decrease in cell invasion at 5 to 20 nM measured after 48 hrs by transwell assay; type: functional, cell-based; conditions: Homo sapiens, dose 5-20 nM
HepG2 = experiment: Antiproliferative activity against human HepG2 cells assessed as cell growth inhibition after 72 hrs by SRB assay; type: functional, cell-based; conditions: HepG2, 72 h
L02 = experiment: Cytotoxicity against human L02 cells assessed as reduction in cell viability; type: cell-based
MGC-803 [4] = experiment: Inhibition of cell migration in human MGC-803 cells assessed as decrease in wound healing rate at 7.5 to 30 nM measured after 48 hrs by wound healing assay; type: functional, cell-based; conditions: dose 7.5-30 nM
MGC-803 [5] = experiment: Induction of apoptosis in human MGC-803 cells assessed as increase in cleaved Caspase-9 expression incubated for 24 hrs by Western blot analysis; type: functional, cell-based; conditions: dose 7.5-30 nM
MGC-803 [6] = experiment: Induction of cell cycle arrest in human MGC-803 cells assessed as accumulation at G2/M phase incubated for 24 hrs by propidium iodide staining based flow cytometry; type: functional; conditions: dose 7.5-30 nM
MGC-803 [7] = experiment: Induction of apoptosis in human MGC-803 cells assessed as early apoptotic cells at 15 nM measured after 48 hrs by Annexin V-APC/PI double staining based flow cytometry assay (reference value: 1.31 %); type: functional, cell-based
MGC-803 [8] = experiment: Induction of cell cycle arrest in human MGC-803 cells assessed as accumulation at S phase at 7.5 nM incubated for 24 hrs by propidium iodide staining based flow cytometry (reference value: 17.3 %); type: functional
MGC-803 [9] = experiment: Induction of mitochondrial membrane potential loss in human MGC-803 cells at 30 nM after 48 hrs by JC-1 staining based flow cytometric analysis (reference value: 86 %); type: functional
Tubulin = experiment: Inhibition of tubulin polymerization (unknown origin) measured after 1 min by fluorescence assay; type: protein-complex assay, Homo sapiens; conditions: read-out: IC50
MGC-803 [10] = experiment: Induction of apoptosis in human MGC-803 cells assessed as necrotic cells at 15 nM measured after 48 hrs by Annexin V-APC/PI double staining based flow cytometry assay (reference value: 0.57 %); type: functional, cell-based
MGC-803 [11] = experiment: Induction of mitochondrial membrane potential loss in human MGC-803 cells after 48 hrs by JC-1 staining based flow cytometric analysis; type: functional, cell-based; conditions: dose 7.5-30 nM
MGC-803 [12] = experiment: Induction of ROS generation in human MGC-803 cells assessed as increase in intracellular ROS level incubated for 24 hrs by DCFH-DA staining based flow cytometric analysis; type: functional, cell-based; conditions: dose 7.5-30 nM
Tubulin (Homo sapiens) [13] = target: T1, Tubulin (Homo sapiens) (UniProt P68371+Q9H4B7+P0DPH7+P68366+Q13509+Q71U36+P04350+Q3ZCM7+P07437+P68363+Q9BQE3+Q6PEY2+Q13885+Q9BVA1+Q9BUF5); experiment: Inhibition of tubulin polymerization in human MGC-803 cells assessed as blockage of spindle formation at 30 nM measured after 48 hrs by Hoechst staining based confocal microscopy analysis; type: cell-based
MGC-803 [14] = experiment: Induction of ROS generation in human MGC-803 cells assessed as intracellular ROS level at 30 nM incubated for 24 hrs by DCFH-DA staining based flow cytometric analysis (reference value: 2.72 %); type: functional
Tubulin (Homo sapiens) [15] = target: T1, Tubulin (Homo sapiens); experiment: Inhibition of tubulin polymerization in human MGC-803 cells; type: cell-based
MGC-803 [16] = experiment: Induction of cell cycle arrest in human MGC-803 cells assessed as accumulation at G2/M phase at 15 nM incubated for 24 hrs by propidium iodide staining based flow cytometry (reference value: 37.03 %); type: functional
MGC-803 [17] = experiment: Induction of cell cycle arrest in human MGC-803 cells assessed as accumulation at G2/M phase at 7.5 nM incubated for 24 hrs by propidium iodide staining based flow cytometry (reference value: 37.03 %); type: functional
MGC-803 [18] = experiment: Induction of apoptosis in human MGC-803 cells assessed as increase in cleaved Caspase-7 expression incubated for 24 hrs by Western blot analysis; type: functional, cell-based; conditions: dose 7.5-30 nM
MCF7 = experiment: Antiproliferative activity against human MCF7 cells assessed as cell growth inhibition after 72 hrs by SRB assay; type: functional, cell-based; conditions: MCF7, 72 h
MGC-803 [19] = experiment: Antiinvasive activity in human MGC-803 cells assessed as decrease in number of migrated MGC-803 cells at 7.5 to 30 nM measured after 48 hrs by transwell assay; type: functional, cell-based; conditions: dose 7.5-30 nM
MGC-803 [20] = experiment: Induction of apoptosis in human MGC-803 cells assessed as viable cells at 7.5 nM measured after 48 hrs by Annexin V-APC/PI double staining based flow cytometry assay (reference value: 97.1 %); type: functional, cell-based
HUVEC [21] = experiment: Antivascular activity against HUVEC assessed as inhibition of tube formation at 5 to 20 nM incubated for 48 hrs by […]; type: functional, cell-based; conditions: Homo sapiens, dose 5-20 nM
MGC-803 [22] = experiment: Induction of G2/M phase cell cycle arrest in human MGC-803 cells assessed as upregulation of cyclinB1 protein expression at 7.5 to 30 nM measured after 48 hrs by western blot analysis; type: functional, cell-based; conditions: dose 7.5-30 nM
MGC-803 [23] = experiment: Down regulation of p21 expression in human MGC-803 cells at 7.5 to 30 nM measured after 24 hrs by Western blot analysis; type: functional, cell-based; conditions: dose 7.5-30 nM
HeLa = experiment: Antiproliferative activity against human HeLa cells assessed as cell growth inhibition after 72 hrs by SRB assay; type: functional, cell-based

IC50 (HepG2): 26 nM | IC50 (Tubulin): 1000 nM | inhibition (Tubulin (Homo sapiens) [13]): Active | inhibition (Tubulin (Homo sapiens) [15]): Active | IC50 (MCF7): 23 nM | IC50 (HeLa): 50 nM
Structure (SMILES): COc1ccc(/C=C\c2cc(OC)c(OC)c(OC)c2)cc1/C=C/C(=O)Nc1ccccc1N
inhibition (MGC-803 [1]): Dose-Dependent Effect | Activity (MGC-803 [2]): Dose-Dependent Effect | inhibition (HUVEC [3]): Active | IC50 (L02): 556 nM | inhibition (MGC-803 [4]): Active | Activity (MGC-803 [5]): Dose-Dependent Effect | Activity (MGC-803 [6]): Dose-Dependent Effect | Activity (MGC-803 [7]): Active | Activity (MGC-803 [8]): 12.6% | Activity (MGC-803 [9]): 34.5% | Activity (MGC-803 [10]): Active | Activity (MGC-803 [11]): Dose-Dependent Effect | Activity (MGC-803 [12]): Dose-Dependent Effect | Activity (MGC-803 [14]): 51.4% | Activity (MGC-803 [16]): Dose-Dependent Effect | Activity (MGC-803 [16]; record 2): 48.16% | Activity (MGC-803 [17]): Dose-Dependent Effect | Activity (MGC-803 [17]; record 2): 43.82% | Activity (MGC-803 [18]): Dose-Dependent Effect | Activity (MGC-803 [19]): Active | Activity (MGC-803 [20]): Active | Activity (HUVEC [21]): Active | Activity (MGC-803 [22]): Active | Activity (MGC-803 [23]): Active
